# Measured values: PubChem BioAssay AID516
# Target: Biliverdin reductase A (Homo sapiens) (UniProt P53004)
# Experiment: ligand binding to human biliverdin reductase A – biophysical, DSF, SYPRO orange, recombinant protein (AID 516)
# Conditions: recombinant BLVRA, DSF thermal shift, at 10 µM, buffer 10 mM HEPES, pH 7.5, NaCl 150 mM, stronger effect = higher value
# Chain of Biliverdin reductase A (Homo sapiens) (P53004 whole entry, looked up): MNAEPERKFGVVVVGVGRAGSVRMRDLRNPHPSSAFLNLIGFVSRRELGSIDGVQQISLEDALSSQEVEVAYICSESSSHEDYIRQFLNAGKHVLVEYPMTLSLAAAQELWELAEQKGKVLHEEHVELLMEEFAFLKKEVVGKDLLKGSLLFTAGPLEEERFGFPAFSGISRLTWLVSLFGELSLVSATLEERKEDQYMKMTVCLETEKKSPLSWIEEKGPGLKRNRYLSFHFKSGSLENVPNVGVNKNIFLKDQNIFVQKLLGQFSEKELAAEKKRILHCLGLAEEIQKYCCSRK
structure (smiles),measurement,value
C=CC1=C(C)/C(=C/c2[nH]c(Cc3[nH]c(/C=C4\NC(=O)C(C)=C4C=C)c(C)c3CCC(=O)O)c(CCC(=O)O)c2C)NC1=O,Tm shift,3.8 Celsius
